Here are results for 54 molecules from BindingDB's records for doi:10.7270/Q2736PBV (Broad Institute, 2009).

In the assay the target is T1, Streptokinase A (Streptococcus pyogenes serotype M1, UniProt P10520).
T1 sequence (P10520 whole entry): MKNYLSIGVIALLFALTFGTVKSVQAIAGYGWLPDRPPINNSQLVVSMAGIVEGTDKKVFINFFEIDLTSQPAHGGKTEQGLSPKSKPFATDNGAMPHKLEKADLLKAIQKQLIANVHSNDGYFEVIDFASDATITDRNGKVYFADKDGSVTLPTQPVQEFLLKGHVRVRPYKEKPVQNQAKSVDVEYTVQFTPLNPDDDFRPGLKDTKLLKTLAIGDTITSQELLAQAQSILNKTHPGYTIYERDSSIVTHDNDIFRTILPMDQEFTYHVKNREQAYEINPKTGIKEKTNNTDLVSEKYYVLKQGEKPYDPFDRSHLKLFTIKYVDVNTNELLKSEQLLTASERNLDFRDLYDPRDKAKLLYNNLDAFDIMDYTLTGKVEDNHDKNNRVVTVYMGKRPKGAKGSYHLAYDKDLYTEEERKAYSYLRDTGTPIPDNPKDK
The experiment in a line: viability-normalized secreted streptokinase activity reduction – plasminogen activation absorbance, OD405, dose response (AID 1914).
As to `COC(=O)C1C(C)=NC2=C(C(=O)c3ccccc32)C1c1ccc(-c2ccc(C(=O)O)cc2)o1` (centres undefined) [4-{5-[3-(methoxycarbonyl)-2-methyl-5-oxo-4,5-dihydro-1H-indeno[1,2-b]pyridin-4-yl]-2-furyl}benzoic acid], the EC50 (usually the concentration needed to bring the measured effect to its halfway point) is above 150 µM.

Molecule `CCN1C(=O)C(C=NN=Cc2ccccc2)c2ccc(C3=NNC(=O)CC3)cc21` (centres undefined) [benzaldehyde {[1-ethyl-2-oxo-6-(6-oxo-1,4,5,6-tetrahydro-3-pyridazinyl)-1,2-dihydro-3H-indol-3-ylidene]methyl}hydrazone] showed an EC50 above 150 µM.

On to `Oc1ccc2ccccc2c1CN=Nc1nnc(-c2ncc[nH]2)c2ccccc12` [SMR000151639], for which the EC50 is 5.52 µM.

The molecule `COc1ccc(OC)c(NC=C2C(=O)NC(=S)N(Cc3ccccc3)C2=O)c1` displayed an EC50 above 150 µM.

Molecule `O=C1NC(=S)N(C2CCCCC2)C(=O)C1=CNNC(=O)c1ccccc1` [N'-[(E)-(1-cyclohexyl-4,6-dioxo-2-sulfanylidene-1,3-diazinan-5-ylidene)methyl]benzohydrazide] displayed an EC50 above 150 µM.

With `C=CCOC(=O)C1=C(C)N=C(SCC)C(C#N)C1c1ccc(Cl)cc1` (centres undefined) [4-(4-Chloro-phenyl)-5-cyano-6-ethylsulfanyl-2-methyl-1,4-dihydro-pyridine-3-carboxylic acid allyl ester], the EC50 worked out at 8.34 µM. This counts as single-digit micromolar.

With `Oc1nc(Nc2ccc(Cl)cc2)sc1Cc1cccc(Cl)c1Cl` [2-(4-chloroanilino)-5-(2,3-dichlorobenzyl)-2-thiazolin-4-one], a half-maximal effect (EC50) was put at 131 µM. Against the preceding molecule, the EC50 is about 16-fold higher.

On to `CCc1ccc2c(c1)=C(NNc1nc(-c3ccccc3)cs1)C(=O)N=2` [5-ethyl-1H-indole-2,3-dione 3-[(4-phenyl-1,3-thiazol-2(3H)-ylidene)hydrazone]], for which the EC50 is above 150 µM.

For `CCOC(=O)c1ccc(NC(=O)Cc2sc(N=NCc3c[nH]c4ccccc34)nc2O)cc1` [MLS000722052], the EC50 was above 150 µM.

For the molecule `Cc1ccc(-n2c(=O)c3[nH][nH]n(CC(=O)N4N=C(c5cccc6ccccc56)CC4c4ccccc4)c=3c2=O)cc1` (centres undefined) [MLS000546672], the concentration for a half-maximal effect (EC50) amounted to 35.7 µM.

`Cc1cc(N=NCc2ccc(O)c(C)c2O)nc(-c2ccccc2O)n1` [(4E)-3-hydroxy-2-methyl-4-[[[(2Z)-6-methyl-2-(6-oxo-1-cyclohexa-2,4-dienylidene)-1H-pyrimidin-4-yl]hydrazo]methylidene]-1-cyclohexa-2,5-dienone]: the concentration for a half-maximal effect (EC50) is above 150 µM.

In turn, `CCCCCCC(N=O)c1ccccn1` (centres undefined) came in with an EC50 above 150 µM.

As to `COC(=O)c1sc(N2C(=O)C(=O)C(C(=O)c3ccc(C)o3)C2c2ccc([N+](=O)[O-])cc2)nc1C` (centres undefined) [methyl 2-[4-hydroxy-3-(5-methylfuran-2-carbonyl)-2-(4-nitrophenyl)-5-oxo-2H-pyrrol-1-yl]-4-methyl-1,3-thiazole-5-carboxylate], the EC50 was above 150 µM.

`COc1ccccc1Nc1oc2cc(=O)ccc-2cc1C(N)=O` [2-(2-methoxyanilino)-7-oxo-1-benzopyran-3-carboxamide] had an EC50 above 150 µM.

As for `CCc1ccc2[nH]c(=O)c(C3c4ccc5cccnc5c4OC(=N)C3C#N)cc2c1` (centres undefined), the EC50 is above 150 µM.

Turning to `Cc1ccc2nc(-n3c(O)c[nH]c3=S)sc2c1`, the EC50 is above 150 µM.

On to `CN1C(=O)C(=NNc2nc(-c3ccccc3)cs2)c2ccccc21` [SMR000243133], for which the EC50 is 7.09 µM.

`O=[N+]([O-])c1cc(Br)c(O)c(CN=Nc2nnnn2-c2cccc3ccccc23)c1` [(6E)-2-bromo-6-[[2-(1-naphthalen-1-yltetrazol-5-yl)hydrazinyl]methylidene]-4-nitrocyclohexa-2,4-dien-1-one] displayed an EC50 above 150 µM.

Molecule `O=C1C(=NNC(=S)Nc2ccccc2F)c2ccccc2N1Cc1cccc(Cl)c1` [1-[(Z)-[1-[(3-chlorophenyl)methyl]-2-oxoindol-3-ylidene]amino]-3-(2-fluorophenyl)thiourea] came in with an EC50 above 150 µM.

As to `N#CC(C(=O)COc1ccccc1)c1nc2ccccc2s1` (centres undefined) [(2Z)-2-(3H-1,3-benzothiazol-2-ylidene)-3-keto-4-phenoxy-butyronitrile], a half-maximal effect (EC50) was put at 7.55 µM.

On to `O=C1C([N+](=O)[O-])=CC(Cl)=CC1CN=Nc1nc2ccccc2s1` (centres undefined), for which the EC50 is above 150 µM.

As to `Cc1ccc(F)c(NC(=O)C(C#N)C(=O)c2ccc(C(C)(C)C)cc2)c1` (centres undefined) [(Z)-2-(4-tert-butylphenyl)carbonyl-3-[(2-fluoranyl-5-methyl-phenyl)amino]-3-oxidanyl-prop-2-enenitrile], the EC50 is above 150 µM.

For `O=C(CCCCCNC(=O)c1ccccc1)NNC1=c2cc(Br)cc(Br)c2=NC1=O` [N-[6-[2-[5,7-bis(bromanyl)-2-oxidanylidene-indol-3-yl]hydrazinyl]-6-oxidanylidene-hexyl]benzamide], the 50% effective concentration (EC50) is above 150 µM.

The molecule `Cc1nn(-c2ccccc2)c(Cl)c1C1C2=C(CCCC2=O)OC(=N)C1C#N` (centres undefined) [2-azanyl-4-(5-chloranyl-3-methyl-1-phenyl-pyrazol-4-yl)-5-oxidanylidene-4,6,7,8-tetrahydrochromene-3-carbonitrile] returned an EC50 above 150 µM.

For `c1csc(CN=Nc2ncnc3sc4c(c23)CCC4)c1` [MLS000571423], the EC50 is above 150 µM.

`Cc1cc(C)nc(N=NCc2cc(Br)ccc2O)n1`: the half-maximal effective concentration (EC50) is above 150 µM.

As to `O=C1C=CC(N=Nc2ccc([N+](=O)[O-])cc2)C(O)=C1` (centres undefined) [MLS000530152], the midpoint of the response, the EC50, lay at 50 µM.

Consider `Cc1ccsc1C1CC(c2cccc(Br)c2)=Nc2ncnn21` (centres undefined) [5-(3-bromophenyl)-7-(3-methylthien-2-yl)-4,7-dihydro[1,2,4]triazolo[1,5-a]pyrimidine], for which the EC50 is above 150 µM.

`CC(N=Nc1nc2ccccc2[nH]1)c1ccc2c(c1)OCO2` (centres undefined) [SMR000354227] registered an EC50 above 150 µM.

Turning to `Oc1ccc(Br)cc1CN=Nc1nc(N2CCCCC2)nc(N2CCOCC2)n1` [MLS000713264], it took 33.6 µM to reach a half-maximal effect (EC50).

With `CC(Oc1ccc(Cl)cc1Cl)C(=O)Nc1cc(=O)n(-c2ccccc2)[nH]1` (centres undefined) [SMR000195064], the EC50 amounted to 123 µM.

As for `CCC(C)N1C(=O)C(=CNNc2ccccc2)C(=O)NC1=S` (centres undefined), the EC50 is above 150 µM.

The molecule `Oc1ccc(CN=Nc2nc(-c3ccc(Cl)cc3)cc(C(F)(F)F)n2)cc1` [SMR000212812] showed an EC50 of 16.3 µM.

On to `Cc1ccc(C2C(C(=O)c3cc4ccccc4o3)C(=O)C(=O)N2c2cc(C)on2)cc1` (centres undefined) [MLS001147776], for which the EC50 came out at 6.3 µM.

Molecule `COc1ccc(CC(=O)N/N=C/C2C=C([N+](=O)[O-])C=C(Br)C2=O)cc1` (centres undefined) had an EC50 above 150 µM.

For the molecule `CCCCCCCCOC(=O)C1C(C)=Nc2nnnn2C1c1cccs1` (centres undefined) [MLS000519969], a half-maximal effect (EC50) was put at 50 µM.

`Cc1ccc(C(=O)CC(=O)C(=O)NC23CC4CC(CC(C4)C2)C3)cc1` [(Z)-N-(1-adamantyl)-4-hydroxy-4-(4-methylphenyl)-2-oxobut-3-enamide]: the EC50 is above 150 µM.

`Clc1ccc(-c2ccc(CN=Nc3cc(N4CCOCC4)nc(N4CCOCC4)n3)o2)cc1` [MLS000527145] came in with a concentration for a half-maximal effect (EC50) above 150 µM.

As to `N#CC(C(=O)c1ccc([N+](=O)[O-])o1)c1nc2ccccc2[nH]1` (centres undefined), a half-maximal response (EC50) required 27.6 µM. This counts as double-digit micromolar.

For the molecule `COc1ccc(CN=Nc2nc(Nc3ccccc3)nc(N3CCCCC3)n2)cc1OC` [N2-[(3,4-dimethoxyphenyl)methylideneamino]-N4-phenyl-6-piperidin-1-yl-1,3,5-triazine-2,4-diamine], the EC50 was above 150 µM.

On to `O=C1N=C(Nc2ccccc2)SC1=Cc1c[nH]c2ccccc12` [MLS000766635], for which the EC50 is above 150 µM.

Regarding `Cc1nc(N=NCc2ccc3c(c2)OCO3)sc1C` [(4,5-dimethylthiazol-2-yl)-(piperonylideneamino)amine], the EC50 was above 150 µM.

Molecule `O=C(CC1=NC2(CCCC2)Cc2ccccc21)C(=O)NN=Cc1ccccc1O` [SMR000219463] yielded an EC50 above 150 µM.

On to `Oc1ccc(CN=Nc2ccc3ccccc3c2)c(O)c1` [(4E)-3-hydroxy-4-[(2-naphthalenylhydrazo)methylidene]-1-cyclohexa-2,5-dienone], for which the concentration giving a half-maximal response (EC50) is above 150 µM.

With `Cc1sc2ncnc(N=NCc3ccccc3O)c2c1C`, the EC50 was found to be 8.21 µM.

Take `O=C(O)c1ccc(N=NCc2ccc(OC(=O)c3ccccc3Cl)cc2)cc1` [MLS000589715]: the half-maximal effective concentration (EC50) is above 150 µM.

`CC(C)(C)c1cc(-c2cs/c(=N\c3ccccc3)n2Cc2ccc(C(=O)O)cc2)cc(C(C)(C)C)c1O` [4-[[4-(3,5-ditert-butyl-4-oxidanyl-phenyl)-2-phenylazanyl-1,3-thiazol-3-ium-3-yl]methyl]benzoic acid;bromide]: the EC50 was above 150 µM.

As for `COc1cc(CN=Nc2nc(Nc3ccc(C)cc3)nc(-n3nc(C)cc3C)n2)cc(OC)c1OC`, the EC50 was above 150 µM.

`CCOc1ccc(CN=Nc2cc(N3CCOCC3)nc(C)n2)c(O)c1` [(6E)-3-ethoxy-6-[[2-(2-methyl-6-morpholin-4-yl-pyrimidin-4-yl)hydrazinyl]methylidene]cyclohexa-2,4-dien-1-one] returned an EC50 above 150 µM.

Regarding `CCOC(=O)c1sc(N2C(=O)C(=O)C(C(=O)c3ccco3)C2c2cccc(Cl)c2)nc1C` (centres undefined), the EC50 is above 150 µM.

Consider `CC(=NNC(=N)Sc1cc(O)n(-c2ccc(Br)cc2)c1O)c1cccs1` [[1-(4-bromophenyl)-2,5-bis(oxidanylidene)pyrrolidin-3-yl] N''-(1-thiophen-2-ylethylideneamino)carbamimidothioate], for which a half-maximal effect (EC50) was put at 9.08 µM.

`CCOc1cc(CN=Nc2cc(C)nc(-n3nc(C)cc3C)n2)ccc1O` [4-{[2-(3,5-Dimethyl-pyrazol-1-yl)-6-methyl-pyrimidin-4-yl]-hydrazonomethyl}-2-ethoxy-phenol] gave an EC50 above 150 µM.

Regarding `COc1ccc(C2C(C(=O)c3ccccc3)C(C)=Nc3nc4ccccc4n32)c(OC)c1` (centres undefined) [MLS000586747], the EC50 is above 150 µM.

Molecule `C=c1c(C#N)c(N)[nH]c2c(C#N)c(C)c(=Cc3ccc(C)cc3)c1=2` showed an EC50 of 12.3 µM.
